Patent publication US10851073B2, “Protein tyrosine phosphatase inhibitors and methods of use thereof” (Calico Life Sciences LLC, priority 2019, dated 2020)

How the values were obtained:
[1] = target: T1, His tagged full-length PTPN1 protein (Homo sapiens, UniProt P18031); assay: Mobility shift assay (MSA) used to determine potency of PTPN1 inhibitors; type: biochemical; conditions: enzyme 0.5 nM, substrate 2 μM
T1 construct: made in house
T1 sequence (P18031 with tags, fused parts or gaps): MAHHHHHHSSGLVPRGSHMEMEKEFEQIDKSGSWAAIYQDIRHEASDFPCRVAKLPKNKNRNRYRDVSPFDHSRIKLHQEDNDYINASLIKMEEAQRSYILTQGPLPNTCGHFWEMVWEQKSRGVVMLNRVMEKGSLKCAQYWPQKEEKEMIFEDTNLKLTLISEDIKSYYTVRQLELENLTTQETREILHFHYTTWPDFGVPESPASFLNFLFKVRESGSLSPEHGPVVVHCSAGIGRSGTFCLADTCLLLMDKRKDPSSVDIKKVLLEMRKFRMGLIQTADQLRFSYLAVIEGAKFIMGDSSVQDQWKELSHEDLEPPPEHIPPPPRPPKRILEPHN
How it was run: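 Full-length His-tagged human PTPN1 (0.5 nM) was preincubated 10 min at room temperature with compound (12-point, 1:3 dilution) in HEPES pH 7.5 buffer with EGTA, EDTA, Tween 20 and DTT. A 2 μM fluorescent phospho-insulin receptor peptide was then added for 10 min before quench. Mobility-shift % conversion gave % inhibition and IC50.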

[2] = target: T2, His tagged PTPN2 (TC45) protein (Homo sapiens, UniProt P17706); assay: Mobility shift assay used to determine potency of PTPN2 inhibitors; type: biochemical; conditions: enzyme 0.5 nM, substrate 2 μM; read-out: PTPN2 MSA IC50
T2 construct: made in house
T2 sequence (P17706 with tags, fused parts or gaps isoform P17706-2): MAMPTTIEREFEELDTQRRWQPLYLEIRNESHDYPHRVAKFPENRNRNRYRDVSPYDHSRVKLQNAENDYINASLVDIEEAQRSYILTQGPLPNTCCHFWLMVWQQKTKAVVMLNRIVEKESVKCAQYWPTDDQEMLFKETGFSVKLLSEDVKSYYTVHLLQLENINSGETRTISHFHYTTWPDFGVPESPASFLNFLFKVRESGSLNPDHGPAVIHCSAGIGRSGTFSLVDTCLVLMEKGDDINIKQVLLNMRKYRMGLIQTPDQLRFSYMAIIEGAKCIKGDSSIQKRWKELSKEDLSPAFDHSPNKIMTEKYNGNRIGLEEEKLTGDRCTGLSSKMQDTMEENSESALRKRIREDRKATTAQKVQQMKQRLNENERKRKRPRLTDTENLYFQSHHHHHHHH
How it was run: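 Enzyme (0.5 nM) preincubated with compound (12-point, 1:3 dilution) 10 min at room temperature in 50 mM HEPES pH 7.5, 1 mM EGTA, 10 mM EDTA, 0.01% Tween 20, 2 mM DTT; OG488-labelled phospho-insulin-receptor peptide substrate (2 μM) added for 10 min, then quenched. Microfluidic mobility shift (ex 488/em 530 nm) gave % conversion; IC50 from % inhibition.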

Question: What does the source list for `CC(C)(CCN[C@@H]1CCc2cc(O)c(N3CC(=O)NS3(=O)=O)c(F)c2C1)C(F)(F)F` (single isomer, unassigned) [Compound 177]?
Answer: IC50 [1]: 1 to 10 nM; IC50 [2]: < 1 nM

Question: Which IC50 [1] does the source give for `O=C1CN(c2c(O)cc3c(c2F)C[C@H](NCCC(F)F)CC3)S(=O)(=O)N1` (single isomer, unassigned) [Compound 260] here?
Answer: The IC50 was 1 to 10 nM.

Question: And the IC50 [2]?
Answer: Its IC50 is 1 to 10 nM.

Question: With `O=C1CN(c2c(O)cc3c(c2F)C[C@@H](NCCC(F)F)CC3)S(=O)(=O)N1` (single isomer, unassigned) [Compound 259] as the molecule, how does the IC50 [1] read?
Answer: The IC50 was 10 to 100 nM.

Question: What about the IC50 [2] of the same molecule?
Answer: The IC50 was 10 to 100 nM.

Question: With `O=C1CN(c2c(O)cc3c(c2F)C[C@H](NCCCC(F)F)CC3)S(=O)(=O)N1` (single isomer, unassigned) [Compound 199] as the molecule, how does the IC50 [1] read?
Answer: The IC50 was < 1 nM.

Question: What about the IC50 [2] of the same molecule?
Answer: The IC50 was < 1 nM.

Question: With `O=C1CN(c2c(O)cc3c(c2F)C[C@H](NCCC2CC2)CC3)S(=O)(=O)N1` (single isomer, unassigned) [Compound 133] as the molecule, how does the IC50 [1] read?
Answer: Its IC50 is 1 to 10 nM.

Question: What about the IC50 [2] of the same molecule?
Answer: The IC50 was 1 to 10 nM.

Question: `CC(C)CCN[C@@H]1CCc2cc(O)c(N3CC(=O)NS3(=O)=O)c(F)c2C1` (single isomer, unassigned) [Compound 118] was tested. Which IC50 [1] did it give?
Answer: Its IC50 is 1 to 10 nM.

Question: What about the IC50 [2] of the same molecule?
Answer: Its IC50 is 1 to 10 nM.
